Measurements taken from patent publication US6414020B2, “Amidino protease inhibitors” (3- Dimensional Pharmaceuticals, Inc., priority 1995, dated 2002).
Where a name gives a salt, the structure may show the parent alone.

What was measured:
Type in all cases: biochemical
[1] = target: T1, human α-thrombin (Homo sapiens, UniProt P00734); assay: In vitro inhibition of purified thrombin, Ki determination (p-nitroanilide substrate hydrolysis); conditions: Enzyme: Thrombin; substrate Suc-Ala-Ala-Pro-Arg-pNA 20 μM, 37° C., pH 7.5
T1 construct: Purified human a-thrombin was diluted into assay buffer; purchased Enzyme Research Laboratories (South Bend, Indiana)
Excerpt: (§1) All buffer salts were obtained from Sigma Chemical Company (St. Louis, Mo.), and were of the highest purity available. The enzyme substrates, N-benzoyl-Phe-Val-Arg-p-nitroanilide (SigmaB7632),N-benzoyl-Ile-Glu-Gly-Arg-p-nitroanilide (Sigma B2291), N-p-tosyl-Gly-Pro-Lys-p-nitroanilide (Sigma T6140), and N-succinyl-Ala-Ala-Pro-Phe-p-nitroanilide (Sigma S7388) were all obtained from Sigma.
(§2) Human α-thrombin and human factor Xa were obtained from Enzyme Research Laboratories (South Bend, Indiana). Bovine trypsin was obtained from Sigma.
All assays are based on the ability of the test compound to inhibit the enzyme catalyzed hydrolysis of a peptide p-nitroanilide substrate. In a typical Ki determination, substrate is prepared in DMSO, and diluted into an assay buffer consisting of 50 mM HEPES, 200 mM NaCl, pH 7.5. The final concentration for each of the substrates is listed below. In general, substrate concentrations are lower than the experimentally determined value for Km. Test compounds are prepared as a 0.16 mg/mL solution in DMSO. Dilutions are prepared in DMSO yielding 8 final concentrations encompassing a 200-fold concentration range. Enzyme solutions are prepared at the concentrations listed below in assay buffer.
(§3) In a typical Ki determination, into each well of a 96 well plate is pipetted 280 uL of substrate solution, 10 μL of inhibitor solution, and the plate allowed to thermally equilibrate at 37° C. in a Molecular Devices plate reader for >10 minutes. Reactions were initiated by the addition of a 20 μL aliquot of enzyme, and the absorbance increase at 405 nm is recorded for 15 minutes. Data corresponding to less than 10% of the total substrate hydrolysis were used in the calculations. The ratio of the velocity (rate of the change in absorbance as a function of time) for a sample containing no inhibitor is divided by the velocity of a sample containing inhibitor, and is plotted as a finction of inhibitor concentration. The data are fit to a linear regression, and the value of the slope of the line calculated. The inverse of the slope is the experimentally determined Ki value.
Thrombin activity was assessed as the ability to hydrolyze the substrate Suc-Ala-Ala-Pro-Arg-pNA. Substrate solutions were prepared at a concentration of 20 μM (20 uM<<Km=180 μM) in assay buffer. Final DMSO concentration was 0.3%. Purified human a-thrombin was diluted into assay buffer to a concentration of […]. Final reagent concentrations were: [thrombin] ═0.5 nM, [Suc-Ala-Ala-Pro-Arg-pNA]=20 μM.

[2] = target: T2, human factor Xa (Homo sapiens, UniProt P00742); assay: In vitro inhibition of purified factor Xa, Ki determination (p-nitroanilide substrate hydrolysis); conditions: Enzyme: Factor Xa; substrate Bz-Ile-Glu-Gly-Arg-pNA 51 μM, 37° C., pH 7.5
T2 construct: purchased Enzyme Research Laboratories (South Bend, Indiana)
Excerpt: as §1, §2
(§4) All assays are based on the ability of the test compound to inhibit the enzyme catalyzed hydrolysis of a peptide p-nitroanilide substrate. […] In general, substrate concentrations are lower than the experimentally determined value for Km. […]
as §3, with “Data corresponding to less than 10% of the total substrate hydrolysis were used in the calculations.” left out, “The data are fit to a linear regression, and the value of the slope of the line calculated. The inverse of the slope is the experimentally determined Ki value.” left out

[3] = target: T3, bovine trypsin (Bos taurus, UniProt P00760); assay: In vitro inhibition of purified trypsin, Ki determination (p-nitroanilide substrate hydrolysis); conditions: Enzyme: Trypsin; substrate Bz-Phe-Val-Arg-pNA 14 μM, 37° C., pH 7.5
T3 construct: Purified bovine trypsin was diluted into assay buffer; purchased Sigma
T3 sequence (P00760 24-246): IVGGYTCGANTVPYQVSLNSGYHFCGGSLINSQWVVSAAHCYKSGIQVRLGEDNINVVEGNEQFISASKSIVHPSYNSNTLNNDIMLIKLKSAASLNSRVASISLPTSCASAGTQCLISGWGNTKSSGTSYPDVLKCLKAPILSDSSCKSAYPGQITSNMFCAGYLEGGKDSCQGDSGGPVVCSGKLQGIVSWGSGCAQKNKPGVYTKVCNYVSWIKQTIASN
Excerpt: as §1, §2, §4
as §3, with “Data corresponding to less than 10% of the total substrate hydrolysis were used in the calculations.” left out, “The data are fit to a linear regression, and the value of the slope of the line calculated. The inverse of the slope is the experimentally determined Ki value.” left out

[4] = target: T4, bovine α-chymotrypsin (Bos taurus, UniProt P00766); assay: In vitro inhibition of purified chymotrypsin, Ki determination (p-nitroanilide substrate hydrolysis); conditions: Enzyme: Chymotrypsin; substrate Suc-Ala-Ala-Pro-Phe-pNA 14 μM, 37° C., pH 7.5
T4 construct: Purified bovine x-chymotrypsin was diluted into assay buffer
Excerpt: as §1
All assays are based on the ability of the test compound to inhibit the enzyme catalyzed hydrolysis of a peptide p-nitroanilide substrate. In a typical Ki determination, substrate is prepared in DMSO, and diluted into an assay buffer consisting of 50 mM HEPES, 200 mM NaCl, pH 7.5. […] In general, substrate concentrations are lower than the experimentally determined value for Km. […]
as §3, with “Data corresponding to less than 10% of the total substrate hydrolysis were used in the calculations.” left out, “The data are fit to a linear regression, and the value of the slope of the line calculated. The inverse of the slope is the experimentally determined Ki value.” left out

T2 sequence (P00742 235-488 limits assumed): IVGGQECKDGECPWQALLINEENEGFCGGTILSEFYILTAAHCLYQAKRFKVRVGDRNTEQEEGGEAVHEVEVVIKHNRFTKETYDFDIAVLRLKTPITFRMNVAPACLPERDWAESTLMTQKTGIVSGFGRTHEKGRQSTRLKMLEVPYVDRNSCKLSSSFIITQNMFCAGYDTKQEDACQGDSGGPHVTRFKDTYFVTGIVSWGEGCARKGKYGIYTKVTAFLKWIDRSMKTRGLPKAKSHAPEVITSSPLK
T2 sequence (P00742 41-179 limits assumed): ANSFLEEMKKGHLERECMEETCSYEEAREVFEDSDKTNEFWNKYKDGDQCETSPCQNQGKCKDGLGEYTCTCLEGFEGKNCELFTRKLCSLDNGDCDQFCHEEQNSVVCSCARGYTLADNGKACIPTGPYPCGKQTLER

SMILES	Ki [1] [nM]	further results
CC(=N)N1CCC(COc2cc(C)cc(OS(=O)(=O)c3ccccc3Cl)c2)CC1 [Example 1, 2-Chlorobenzenesulfonic acid 3-[(1-acetimidoylpiperidin-4-yl)methoxy]-5-methylphenyl ester hydrochloride]	1650	–
CC(=N)N1CCC(COc2cc(C)cc(OS(=O)(=O)c3cccc(Cl)c3)c2)CC1 [Example 5, 3-Chlorobenzenesulfonic acid 3-[[(1-acetimidoyl)piperidin-4-yl]methoxyl]-5-methylphenyl ester hydrochloride]	4860	–
Cc1cc(OCc2cccc(C(=N)N)c2)cc(OS(=O)(=O)c2ccccc2Cl)c1 [Example 6, 2-Chlorobenzenesulfonic acid 3-[(3amidinophenyl)methoxy]-5-methylphenyl ester hydrochloride]	–	Ki [2]: 2720 nM
Cc1cc(OCc2cccc(C(=N)NO)c2)cc(OS(=O)(=O)c2ccccc2Cl)c1 [Example 7, 2-Chlorobenzenesutronic acid 3-[[3-(N-hydroxy)amidinophenyl]methoxy-5-methylphenyl ester hydrochloride]	–	Ki [3]: 5230 nM
CC(=N)N1CCC(COc2cc(C)cc(OS(=O)(=O)c3cccc(Cl)c3Cl)c2)CC1 [Example 8, 2,3-Dichlorobenzenesulfonic acid 3-[[(1-acetimidoyl)piperidin-4-yl]methoxy]-5-methylphenyl ester hydrochloride]	1720	–
Cc1cc(OCCCC(=N)N)cc(OS(=O)(=O)c2ccccc2Cl)c1 [Example 14, 2-Chlorobenzenesulfonic acid 3-[3-amidinopropoxy]-5-methylphenyl ester hydrochloride]	570	–
Cc1cc(OCCCCCC(=N)N)cc(OS(=O)(=O)c2ccccc2Cl)c1 [Example 18, 2-Chlorobenzenesulfonic acid 3-[5-amidinopentyloxy]-5-methylphlenyl ester acetic acid salt]	–	Ki [4]: 6290 nM
